Columns and labels:
Type in all cases: in vivo
[1] = tested on: M. incognita (Root Knot Nematode) larvae; assay: Evaluation of test compounds against M. incognita larvae in microtiter plate wells (movement score); settings: larvae scored for movement after 20-24 hours; note: key: A score of '9' indicates inactive worms with a straight, sticklike morphology; A score of '8' indicates inactive worms with a limp, curled or curved morphology; A score of '7' indicates dead/paralyzed worms after 72 hours
Outline: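 Newly emerged M. incognita larvae in S Medium (buffered salt solution), 50-65 worms per well, exposed to test compounds in sealed microtiter wells. Movement scored after 20-24 h incubation; wells with obviously dead/paralyzed larvae scored positive. A score of "7" denotes dead/paralyzed worms after […].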

[2] = tested on: Aphis gossypii, cotton aphid (CA); assay: Cotton aphid (CA) cotyledon dip test; design: key: 0 = no effect; 1 = 10-25% kill; 2 = 26-35% kill; 3 = 36-45% kill; 4 = 46-55% kill; 5 = 56-65% kill; 6 = 66-75% kill; 7 = 76-85% kill; 8 = 86-99% kill; 9 = 100% kill; settings: mortality after 5 days
Outline: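 Cotyledon-stage cotton plants infested overnight via a heavily infested leaf, then dipped in test solution (compound in 35% acetone/water, diluted with water) and dried. Mortality counted after 5 days.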

[3] = tested on: C. elegans (Bristol strain); assay: Evaluation of test compounds against C. elegans (motility, 96-well plate); design: key: 9=complete kill in 4 hours; 8=complete kill in 24 hours; 7=markedly reduced motility in approximately 95% of worms in 24 hours; 0=normal motility, same as controls; settings: motility at 4 and 24 hours
Outline: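 Bristol-strain C. elegans in Na buffer added to wells containing dried compound (applied in 80% acetone) and incubated at 20 °C. Motility of adults and larvae scored subjectively but semi-quantitatively under a dissecting microscope at 4 and 24 h after immersion, plates tapped before reading.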

[4] = tested on: Diabrotica virgifera virgifera Leconte, 2nd instar western corn rootworm (WCR); assay: Western corn rootworm (WCR) soil test; design: key: 0 = no effect; 1 = 10-25% kill; 2 = 26-35% kill; 3 = 36-45% kill; 4 = 46-55% kill; 5 = 56-65% kill; 6 = 66-75% kill; 7 = 76-85% kill; 8 = 86-99% kill; 9 = 100% kill
Outline: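 Compound in 35% acetone/water applied to talc at 1.25 mg active ingredient per jar (about 50 kg/ha), solvent evaporated, then mixed with millet seed and moist soil. Ten 2nd-instar larvae per jar; mortality counted after 5 days, missing larvae scored dead.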

[5] = tested on: Spodoptera eridania, eggs-southern armyworm (SAW-Eggs); assay: Southern armyworm eggs (SAW-Eggs) treated diet test; design: key: 0 = no effect; 1 = 10-25% kill; 2 = 26-35% kill; 3 = 36-45% kill; 4 = 46-55% kill; 5 = 56-65% kill; 6 = 66-75% kill; 7 = 76-85% kill; 8 = 86-99% kill; 9 = 100% kill; settings: mortality after 7 days
Protocol: Test solutions are prepared by dissolving the test compound in a 35% acetone in water mixture to give a concentration of 10,000 ppm. Subsequent dilutions are made with water as needed. Spodoptera eridania, Eggs-southern Armyworm and Diabrotica undecimpunctata howardi, Eggs-southern Corn Rootworm (SAW-Eggs) and (SCR-Eggs) Wells containing artificial diet are treated with the test solutions and dried. The appropriate insect eggs are then placed in the wells. The wells are covered with vented, adhesive, clear plastic covers. After 7 days, mortality counts are made. [table]

[6] = tested on: Spodoptera eridania, 2nd instar larvae, southern armyworm (SAW); assay: Southern armyworm (SAW) leaf dip test; design: key: 0 = no effect; 1 = 10-25% kill; 2 = 26-35% kill; 3 = 36-45% kill; 4 = 46-55% kill; 5 = 56-65% kill; 6 = 66-75% kill; 7 = 76-85% kill; 8 = 86-99% kill; 9 = 100% kill
Outline: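 Compound is dissolved at 10,000 ppm in 35% acetone/water, then diluted with water. Lima bean leaves are dipped for 3 seconds, dried and placed with ten 2nd instar larvae on damp filter paper. Mortality, reduced feeding and molting interference are scored at 5 days.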

[7] = tested on: Tetranychus urticae (OP-resistant strain), 2-spotted spider mite (TSM); assay: 2-spotted spider mite (TSM) plant dip test; design: key: 0 = no effect; 1 = 10-25% kill; 2 = 26-35% kill; 3 = 36-45% kill; 4 = 46-55% kill; 5 = 56-65% kill; 6 = 66-75% kill; 7 = 76-85% kill; 8 = 86-99% kill; 9 = 100% kill; settings: mortality after 2 days
Outline: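 OP-resistant mites (~100 per leaf) were transferred onto Sieva lima bean primary leaves about 2 h before treatment. Infested plants were dipped for 3 s in compound from a 10,000 ppm stock in 35% acetone/water, diluted with water. Mortality was counted after 2 days.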

[8] = tested on: Diabrotica undecimpunctata howardi, eggs-southern corn rootworm (SCR-Eggs); assay: Southern corn rootworm eggs (SCR-Eggs) treated diet test; design: key: 0 = no effect; 1 = 10-25% kill; 2 = 26-35% kill; 3 = 36-45% kill; 4 = 46-55% kill; 5 = 56-65% kill; 6 = 66-75% kill; 7 = 76-85% kill; 8 = 86-99% kill; 9 = 100% kill; settings: mortality after 7 days
Outline: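 Compounds dissolved at 10,000 ppm in 35% acetone/water, diluted with water, applied to artificial diet in wells and dried. Southern corn rootworm or southern armyworm eggs placed on treated diet under vented covers; mortality counted after 7 days.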

Compound | M. incognita (150 ppm) score [1] | CA (300 ppm) rating [2] | Rating Against C. elegans (150 ppm) [3] | WCR (50 ppm) rating [4] | SAW Eggs (300 ppm) rating [5] | SAW (300 ppm) rating [6] | TSM (300 ppm) rating [7] | SCR Eggs (1000 ppm) rating [8]
COC(=O)CSC(C[N+](=O)[O-])c1ccc(F)cc1 (centres unmarked) [Example 15] | 9 | 0 | 9 | 3 (3 = 36-45% kill) | 0 | 0 | 0 | –
CCOC(=O)CSC(C[N+](=O)[O-])c1ccc(F)cc1 (centres unmarked) [Example 16] | 9 | 0 | 8 | 0 | 0 | 0 | 0 | –
CCCCOC(=O)CSC(C[N+](=O)[O-])c1ccc(F)cc1 (centres unmarked) [Example 17] | 9 | 0 | 8 | 0 | 0 | 0 | 5 (5 = 56-65% kill) | –
COC(=O)CSC(C[N+](=O)[O-])c1cccc([N+](=O)[O-])c1 (centres unmarked) [Example 138] | 0 | 0 | – | 0 | 0 | 0 | 0 | 0
O=C(O)CSC(C[N+](=O)[O-])c1cccnc1 (centres unmarked) [Example 179] | 9 | 0 | – | 0 | 0 | 0 | 0 | 0
O=C(O)CSC(C[N+](=O)[O-])c1cccs1 (centres unmarked) [Example 181] | 9 | 0 | – | 0 | 9 (9 = 100% kill) | 0 | 0 | 0
COC(=O)CSC(C[N+](=O)[O-])c1cccs1 (centres unmarked) [Example 182] | 9 | 0 | – | 0 | 0 | 0 | 0 | 0
CCOC(=O)CSC(C[N+](=O)[O-])c1cccs1 (centres unmarked) [Example 183] | 9 | 0 | – | 0 | 0 | 0 | 0 | 0
CCCCOC(=O)CSC(C[N+](=O)[O-])c1cccs1 (centres unmarked) [Example 184] | 9 | 0 | – | 0 | 9 (9 = 100% kill) | 0 | 0 | 0
O=C(CSC(C[N+](=O)[O-])c1cccs1)OCc1ccccc1 (centres unmarked) [Example 185] | 9 | 0 | – | 0 | 0 | 0 | 0 | 0
CCCSC(C[N+](=O)[O-])c1cccs1 (centres unmarked) [Example 186] | 0 | 0 | – | 4 (4 = 46-55% kill) | 0 | 4 (4 = 46-55% kill) | 0 | 0
O=C(O)CSC(C[N+](=O)[O-])c1cc(Br)cs1 (centres unmarked) [Example 190] | – | 0 | – | 0 | 0 | 0 | 0 | 0
COC(=O)CSC(C[N+](=O)[O-])c1cc(Br)cs1 (centres unmarked) [Example 191] | – | 0 | – | 0 | 0 | 0 | 0 | 0
CCOC(=O)CSC(C[N+](=O)[O-])c1cc(Br)cs1 (centres unmarked) [Example 192] | – | 0 | – | 0 | 0 | 0 | 0 | 0
CCCOC(=O)CSC(C[N+](=O)[O-])c1cc(Br)cs1 (centres unmarked) [Example 193] | – | 0 | – | 0 | 0 | 0 | 0 | 0
CCCCOC(=O)CSC(C[N+](=O)[O-])c1cc(Br)cs1 (centres unmarked) [Example 194] | – | 0 | – | 0 | 0 | 0 | 0 | 0
O=[N+]([O-])CC(SCc1ccccc1)c1cc(Br)cs1 (centres unmarked) [Example 195] | – | 0 | – | 0 | 0 | 0 | 0 | 0

From patent publication US6358883B1, “Pesticidal and parasiticidal use of 1-aryl-1-(substituted thio, sulfinyl and sulfonyl)-2-nitroethane compounds” (American Cyanamid Company, priority 1998, dated 2002)
